From US20220177428A1, “SPECIFICALLY SUBSTITUTED 3-(2-ALKOXY-6-ALKYL-4-PROPINYLPHENYL)-3-PYRROLIN-2-ONES AND THEIR USE AS HERBICIDES” (Bayer Aktiengesellschaft, priority 2019, published 2022)

Columns and labels:
Assay type in all cases: in vivo
Alopecurus myosuroides [1] = assay: Post-emergence herbicidal effect; conditions: 80 g ai/ha, visual score after about 3 weeks
Description: (§1) [table] Seeds of monocotyledonous and dicotyledonous weed and crop plants are laid out in sandy loam soil in wood-fibre pots, covered with soil and cultivated in a greenhouse under good growth conditions. 2 to 3 weeks after sowing, the test plants are treated at the one-leaf stage. The compounds of the invention, formulated in the form of wettable powders (WP) or as emulsion concentrates (EC), are then sprayed onto the green parts of the plants as aqueous suspension or emulsion at a water application rate equating to 600 to 800 L/ha with addition of 0.2% wetting agent. After the test plants have been left to stand in the greenhouse under optimal growth conditions for about 3 weeks, the action of the preparations is assessed visually in comparison to untreated controls (herbicidal action in percent (%): 100% activity=the plants have died, 0% activity=like control plants).

Echinochloa crus-galli [2] = assay: Post-emergence herbicidal effect; conditions: 80 g ai/ha, visual score after about 3 weeks
Description: as §1

Digitaria sanguinalis [3] = assay: Post-emergence herbicidal effect; conditions: 80 g ai/ha, visual score after about 3 weeks
Description: as §1

Lolium rigidum [4] = assay: Post-emergence herbicidal effect; conditions: 80 g ai/ha, visual score after about 3 weeks
Description: as §1

Avena fatua [5] = assay: Post-emergence herbicidal effect; conditions: 80 g ai/ha, visual score after about 3 weeks
Description: as §1

Setaria viridis [6] = assay: Post-emergence herbicidal effect; conditions: 80 g ai/ha, visual score after about 3 weeks
Description: as §1

Hordeum murinum = assay: Post-emergence herbicidal effect; conditions: 80 g ai/ha, visual score after about 3 weeks
Description: as §1

Alopecurus myosuroides [7] = assay: Pre-emergence herbicidal effect; conditions: visual score after 3 weeks
Source text: (§2) Seeds of monocotyledonous and dicotyledonous weed plants and crop plants are laid out in sandy loam soil in wood-fibre pots and covered with soil. The compounds of the invention, formulated in the form of wettable powders (WP) or as emulsion concentrates (EC), are then applied to the surface of the covering soil as aqueous suspension or emulsion at a water application rate equating to 600 to 800 L/ha with addition of 0.2% wetting agent. After the treatment, the pots are placed in a greenhouse and kept under good growth conditions for the trial plants. The damage to the test plants is scored visually after a test period of 3 weeks by comparison with untreated controls (herbicidal activity in percent (%): 100% activity=the plants have died, 0% activity=like control plants). [table]

Echinochloa crus-galli [8] = assay: Pre-emergence herbicidal effect; conditions: visual score after 3 weeks
Source text: as §2

Viola tricolor = assay: Pre-emergence herbicidal effect; conditions: visual score after 3 weeks
Source text: as §2

Abutylon threophrasti = assay: Pre-emergence herbicidal effect; conditions: 320 g ai/ha, visual score after 3 weeks
Source text: as §2

Matricaria inodora = assay: Pre-emergence herbicidal effect; conditions: 320 g ai/ha, visual score after 3 weeks
Source text: as §2

Digitaria sanguinalis [9] = assay: Pre-emergence herbicidal effect; conditions: visual score after 3 weeks
Source text: as §2

Lolium rigidum [10] = assay: Pre-emergence herbicidal effect; conditions: visual score after 3 weeks
Source text: as §2

Avena fatua [11] = assay: Pre-emergence herbicidal effect; conditions: visual score after 3 weeks
Source text: as §2

Setaria viridis [12] = assay: Pre-emergence herbicidal effect; conditions: visual score after 3 weeks
Source text: as §2

Amaranthus retroflexus = assay: Pre-emergence herbicidal effect; conditions: 320 g ai/ha, visual score after 3 weeks
Source text: as §2

Veronica persica = assay: Pre-emergence herbicidal effect; conditions: 320 g ai/ha, visual score after 3 weeks
Source text: as §2

SMILES | Post-emergence activity ALOMY (Alopecurus myosuroides [1]) | Post-emergence activity ECHCG (Echinochloa crus-galli [2]) | Post-emergence activity DIGSA (Digitaria sanguinalis [3]) | Post-emergence activity LOLRI (Lolium rigidum [4]) | Post-emergence activity AVEFA (Avena fatua [5]) | Post-emergence activity SETVI (Setaria viridis [6]) | Post-emergence activity HORMU (Hordeum murinum) | Pre-emergence activity ALOMY (Alopecurus myosuroides [7]; 80 g ai/ha) | Pre-emergence activity ECHCG (Echinochloa crus-galli [8]; 80 g ai/ha) | Pre-emergence activity VIOTR (Viola tricolor; 80 g ai/ha) | Pre-emergence activity DIGSA (Digitaria sanguinalis [9]; 80 g ai/ha) | Pre-emergence activity LOLRI (Lolium rigidum [10]; 80 g ai/ha) | Pre-emergence activity SETVI (Setaria viridis [12]; 80 g ai/ha) | Pre-emergence activity AVEFA (Avena fatua [11]; 80 g ai/ha) | other results
CC#Cc1cc(C)c(C2=C(O)C3(CCCC(OCCC)C3)NC2=O)c(OC)c1 (centres unmarked) [Example D1, 4-Hydroxy-3-[2-methoxy-6-methyl-4-(prop-1-yn-1-yl)phenyl]-7-propoxy-1-azaspiro[4.5]dec-3-en-2-one] | 100% | 100% | 100% | 100% | 100% | 100% | 100% |  |  |  |  |  |  |  | 
CC#Cc1cc(C)c(C2=C(O)C3(CCC(OCCC)CC3)NC2=O)c(OC)c1 (centres unmarked) [Example D2] | 100% | 100% | 100% | 100% | 100% | 100% |  | 80% | 80% | 100% | 100% | 90% | 100% |  | Pre-emergence activity ALOMY (Alopecurus myosuroides [7]; 320 g ai/ha): 100%; Pre-emergence activity ECHCG (Echinochloa crus-galli [8]; 320 g ai/ha): 100%; Pre-emergence activity VIOTR (Viola tricolor; 320 g ai/ha): 100%; Pre-emergence activity ABUTH (Abutylon threophrasti): 100%; Pre-emergence activity MATIN (Matricaria inodora): 100%; Pre-emergence activity DIGSA (Digitaria sanguinalis [9]; 320 g ai/ha): 100%; Pre-emergence activity LOLRI (Lolium rigidum [10]; 320 g ai/ha): 100%; Pre-emergence activity AVEFA (Avena fatua [11]; 320 g ai/ha): 100%; Pre-emergence activity SETVI (Setaria viridis [12]; 320 g ai/ha): 100%; Pre-emergence activity AMARE (Amaranthus retroflexus): 100%; Pre-emergence activity VERPE (Veronica persica): 80%
CC#Cc1cc(C)c(C2=C(O)C3(CCC(OC(C)C)CC3)NC2=O)c(OC)c1 (centres unmarked) [Example D3] | 100% | 100% | 100% | 100% | 100% | 100% | 80% | 100% | 100% | 100% | 100% | 100% | 100% | 80% | 
C=CCOC1CCC2(CC1)NC(=O)C(c1c(C)cc(C#CC)cc1OC)=C2O (centres unmarked) [Example D5] | 100% | 100% | 100% | 100% | 100% | 100% | 100% |  |  |  |  |  |  |  | 
CC#Cc1cc(C)c(C2=C(O)C3(CCC(COC)CC3)NC2=O)c(OC)c1 (centres unmarked) [Example D6] | 100% | 100% | 100% | 100% | 100% | 100% |  | 80% |  |  | 100% | 100% | 100% | 80% | Pre-emergence activity ALOMY (Alopecurus myosuroides [7]; 320 g ai/ha): 100%; Pre-emergence activity ECHCG (Echinochloa crus-galli [8]; 320 g ai/ha): 100%; Pre-emergence activity VIOTR (Viola tricolor; 320 g ai/ha): 100%; Pre-emergence activity ABUTH (Abutylon threophrasti): 100%; Pre-emergence activity MATIN (Matricaria inodora): 90%; Pre-emergence activity DIGSA (Digitaria sanguinalis [9]; 320 g ai/ha): 100%; Pre-emergence activity LOLRI (Lolium rigidum [10]; 320 g ai/ha): 100%; Pre-emergence activity AVEFA (Avena fatua [11]; 320 g ai/ha): 100%; Pre-emergence activity SETVI (Setaria viridis [12]; 320 g ai/ha): 100%; Pre-emergence activity AMARE (Amaranthus retroflexus): 100%; Pre-emergence activity VERPE (Veronica persica): 100%
CC#Cc1cc(C)c(C2=C(OC(=O)OC)C3(CCCC(OCCC)C3)NC2=O)c(OC)c1 (centres unmarked) [Example P2] | 100% | 100% | 100% | 100% | 100% | 100% | 100% |  |  |  |  |  |  |  | 
CC#Cc1cc(C)c(C2=C(OC(=O)OCC)C3(CCCC(OCCC)C3)NC2=O)c(OC)c1 (centres unmarked) [Example P3] | 100% | 100% | 100% | 100% | 100% | 100% | 100% |  |  |  |  |  |  |  | 
CC#Cc1cc(C)c(C2=C(OC(=O)C(C)C)C3(CCCC(OCCC)C3)NC2=O)c(OC)c1 (centres unmarked) [Example P4] | 100% | 100% | 90% | 100% | 100% | 100% | 100% |  |  |  |  |  |  |  | 
CC#Cc1cc(C)c(C2=C(OC(=O)CC)C3(CCCC(OCCC)C3)NC2=O)c(OC)c1 (centres unmarked) [Example P5] | 100% | 100% | 100% | 100% | 100% | 100% | 100% |  |  |  |  |  |  |  | 
CC#Cc1cc(C)c(C2=C(OC(=O)OCC)C3(CCC(OCCC)CC3)NC2=O)c(OC)c1 (centres unmarked) [Example Q2] | 100% | 100% | 100% | 100% | 90% | 100% |  | 100% | 100% | 100% | 100% | 100% | 100% | 80% | Pre-emergence activity ALOMY (Alopecurus myosuroides [7]; 320 g ai/ha): 100%; Pre-emergence activity ECHCG (Echinochloa crus-galli [8]; 320 g ai/ha): 100%; Pre-emergence activity VIOTR (Viola tricolor; 320 g ai/ha): 100%; Pre-emergence activity ABUTH (Abutylon threophrasti): 90%; Pre-emergence activity MATIN (Matricaria inodora): 100%; Pre-emergence activity DIGSA (Digitaria sanguinalis [9]; 320 g ai/ha): 100%; Pre-emergence activity LOLRI (Lolium rigidum [10]; 320 g ai/ha): 100%; Pre-emergence activity AVEFA (Avena fatua [11]; 320 g ai/ha): 100%; Pre-emergence activity SETVI (Setaria viridis [12]; 320 g ai/ha): 100%; Pre-emergence activity AMARE (Amaranthus retroflexus): 100%; Pre-emergence activity VERPE (Veronica persica): 90%
C=CCOC1CCC2(CC1)NC(=O)C(c1c(C)cc(C#CC)cc1OC)=C2OC(=O)OC (centres unmarked) [Example Q3] | 100% | 100% | 90% | 100% | 80% | 100% | 100% |  |  |  |  |  |  |  | 
C=CCOC1CCC2(CC1)NC(=O)C(c1c(C)cc(C#CC)cc1OC)=C2OC(=O)OCC (centres unmarked) [Example Q4] | 100% | 100% | 100% | 100% | 90% | 100% | 100% | 100% | 100% | 100% | 100% | 100% | 100% | 90% | 
C=CCOC1CCC2(CC1)NC(=O)C(c1c(C)cc(C#CC)cc1OC)=C2OC(=O)C(C)C (centres unmarked) [Example Q5] | 100% | 100% | 100% | 100% |  | 100% | 90% |  |  |  |  |  |  |  | 
